Reference: article PMC5031696, “Synthesis, Biodistribution and In vitro Evaluation of Brain Permeable High Affinity Type 2 Cannabinoid Receptor Agonists [^11C]MA2 and [^18F]MA3” (Frontiers in Neuroscience, 2016)
Each block holds one compound with its values, some of them ahead of it.

What was measured:
mCB2 [1] = molecular target: T1, mCB2 (Mus musculus, UniProt P47936); assay: functional cAMP assay, mCB2; format: cell-based; details: CHO-K1 cells expressing mCB2
T1 construct: host or cells: CHO-K1 beta-arrestin cells
Description: (§1) CHO-K1 beta-arrestin cells (DiscoveRx, Fremont, CA) expressing hCB2, mouse CB2 (mCB2), and human CB1 (hCB1) were cultured in F-12 Nutrient Mixture (HAM) supplemented with 10% fetal bovine serum (FBS), 300 μg/mL hygromycin and 800 μg/mL geneticin (G418). Cells were incubated in a humidified atmosphere at 37°C with 5% CO2.
(§2) cAMP was measured using cAMP-Nano-TRF detection kit (Roche Diagnostics, Penzberg, Germany). Cells were seeded 17–24 h prior to the experiment 3 × 10^4 cells per well in a black 96-well plate with flat clear bottom (Corning, Wiesbaden, Germany) in growth medium and incubated in 5% CO2 at 37°C in a humidified incubator. The growth medium was exchanged with Krebs Ringer bicarbonate buffer with 1 mmol/L 3-isobutyl-1-methylxanthine (IBMX), 0.1% fatty acid-free bovine serum albumin (BSA) and incubated at 30°C for 60 min. Agonist was added to a final assay volume of 100 μL and the mixture was incubated for 30 min at 30°C. The assay was stopped by the addition of 50 μL 3x lysis reagent and shaken for 2 h at room temperature. The time-resolved energy transfer was measured using an LF502 Nanoscan FLT (IOM, Berlin, Germany), equipped with a laser as excitation source. cAMP content was determined from the function of a standard curve spanning from 10 to 0.13 nmol/L cAMP.

hCB1 [2] = molecular target: T2, hCB1 (Homo sapiens, UniProt P21554); assay: functional cAMP assay, hCB1 versus hCB2; format: cell-based; details: cAMP assays
T2 construct: host or cells: CHO-K1 beta-arrestin cells
Description: as §1, §2

hCB2 [3] = molecular target: T3, hCB2 (Homo sapiens, UniProt P34972); assay: radioligand binding assay with [^3H]CP55940, hCB2
T3 construct: host or cells: CHO-K1 beta-arrestin cells
Description: as §1
(§3) Stably transfected cells were treated for 24 h with 5 mM butyrate in growth medium before harvesting, followed by homogenization in 15 mmol/L Hepes, 0.3 mmol/L EDTA, 1 mmol/L EGTA, 2 mmol/L MgCl2, complete EDTA-free protease inhibitor (Roche Applied Science, Rotkreuz, Switzerland), pH 7.4 using a glass potter and centrifugation at 47,800 g at 4°C for 30 min. The pellet was then rehomogenized twice in the same buffer and centrifuged (47,800 g, 4°C, 30 min). The final pellet was then resuspended in 75 mmol/L Tris, 0.3 mmol/L EDTA, 1 mmol/L EGTA, 12.5 mmol/L MgCl2, 250 mmol/L sucrose, pH 7.4 at a protein concentration of 1 to 3 mg/mL, aliquoted, frozen on dry ice and stored at −80°C. Saturation binding was performed with 0.05 to 2.6 nM [^3H]CP55940 (Perkin Elmer) and 1.0 μg of membrane protein. CP55940 (10 μM) was used to define non-specific binding. More than 95% of the total binding signal was specific. Assay buffer consisted of 50 mmol/L Tris-HCl, 5 mmol/L MgCl2, 2.5 mmol/L EGTA, and 0.1% fatty acid-free BSA, pH 7.4. Assays were initiated by addition of membranes in a final volume of 250 μL/well. Mixtures were incubated for 3 h at room temperature and then vacuum filtered and rinsed with wash buffer (50 mmol/L Tris-HCl, 5 mmol/L MgCl2, 2.5 mmol/L EGTA, and 0.5% fatty acid-free BSA, pH 7.4) on a Filtermate cell harvester through Packard GF/B filters presoaked in 0.3% polyethylenimine.
(§4) For competition binding, membrane preparations were incubated with 0.3 nM [^3H]CP55940 in the presence or absence of increasing concentrations of ligands for 60 min at 30°C in a final volume of 0.2 mL of 50 mmol/L Tris-HCl, 5 mmol/L MgCl2, 2.5 mmol/L EGTA, 0.1% fatty acid-free BSA, and 1% DMSO, pH 7.4, buffer, gently shaking. Non-specific binding was defined with 10 μM CP55940. All binding reactions were terminated by vacuum filtration onto 0.5% polyethylenimine presoaked GF/B filter plates (Packard) followed by seven brief washes with 2 mL of ice-cold binding buffer containing 0.5% fatty acid-free BSA. Plates were dried at 50°C for 1 h and liquid scintillation counting was used to determine bound radiolabel. IC50 values and Hill slopes were determined by a four parameter logistic model using ActivityBase (ID Business Solution, Guilford, UK). pKi values were determined by the generalized Cheng-Prusoff equation (Yung-Chi and Prusoff, [1973]).

mCB2 [4] = molecular target: T1, mCB2; assay: radioligand binding assay with [^3H]CP55940, mCB2; details: competition with [^3H]CP55940; read-out: mCB2 Ki
Description: as §1, §3, §4

hCB2 [5] = molecular target: T3, hCB2; assay: functional cAMP assay, hCB2; format: cell-based
Description: as §1, §2

hCB1 [6] = molecular target: T2, hCB1; assay: radioligand binding assay with [^3H]CP55940, hCB1
Description: as §1, §3, §4

[7] = biodistribution studies in male NMRI mice; format: in vivo, mouse; details: mouse, in vivo; for % ID bladder + urine / % ID blood / % ID bone / % ID heart / % ID intestines / % ID kidneys / % ID liver / % ID lungs / % ID pancreas / % ID spleen / % ID stomach / SUV blood / SUV bone / SUV brain / SUV heart / SUV kidneys / SUV liver / SUV lungs / SUV pancreas / SUV spleen / % ID brain: iv
Description: The tissue distribution and kinetics of [^11C]MA2 and [^18F]MA3 were studied in male NMRI mice at 2, 10, 30, and 60 min post injection of the tracer. The results of the biodistribution studies are presented in Table 1 ([^11C]MA2) and Table 2 ([^18F]MA3) as percentage of injected dose (% ID) and standard uptake value (SUV).
The biodistribution of [^11C]MA2 and [^18F]MA3 was studied in normal male Naval Medical Research Institute (NMRI) mice. A solution of HPLC-purified [^11C]MA2 or [^18F]MA3 was diluted with saline to obtain an ethanol concentration < 10%. Mice were anesthetized with isoflurane (2% in oxygen) and injected intravenously (i.v.) with [^11C]MA2 (~ 9.25 MBq) or [^18F]MA3 (~ 0.92 MBq) via a lateral tail vein. The mice were sacrificed by decapitation at 2, and 60 min post injection (for [^11C]MA2, n = 4) and at 2, 10, 30, or 60 min post injection (for [^18F]MA3, n = 3 or 4 per time point) and dissected. Blood, organs, and other body parts were collected in tared tubes and the radioactivity in each tube was measured using an automated gamma counter. The tubes containing selected organs and blood were weighed. For calculation of total radioactivity in blood, blood mass was assumed to be 7% of the body mass (Fritzberg et al., [1982]). Quantitative data are expressed as mean ± standard deviation (SD). Means were compared using an unpaired two-tailed student t-test. Values were considered statistically significant for P ≤ 0.05.

T2 sequence (P21554 whole entry): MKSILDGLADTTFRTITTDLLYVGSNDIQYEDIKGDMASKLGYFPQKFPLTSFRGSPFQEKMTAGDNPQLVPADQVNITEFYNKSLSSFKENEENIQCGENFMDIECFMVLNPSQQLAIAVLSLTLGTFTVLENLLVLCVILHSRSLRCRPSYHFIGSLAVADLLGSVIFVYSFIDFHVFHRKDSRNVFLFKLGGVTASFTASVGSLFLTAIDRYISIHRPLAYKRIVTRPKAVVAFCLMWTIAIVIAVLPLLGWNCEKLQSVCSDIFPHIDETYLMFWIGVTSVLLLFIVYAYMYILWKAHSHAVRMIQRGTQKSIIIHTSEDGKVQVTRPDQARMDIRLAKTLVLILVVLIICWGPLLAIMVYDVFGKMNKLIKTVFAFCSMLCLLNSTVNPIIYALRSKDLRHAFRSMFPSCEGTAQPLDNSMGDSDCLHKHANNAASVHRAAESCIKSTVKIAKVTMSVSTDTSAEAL
T3 sequence (P34972 whole entry): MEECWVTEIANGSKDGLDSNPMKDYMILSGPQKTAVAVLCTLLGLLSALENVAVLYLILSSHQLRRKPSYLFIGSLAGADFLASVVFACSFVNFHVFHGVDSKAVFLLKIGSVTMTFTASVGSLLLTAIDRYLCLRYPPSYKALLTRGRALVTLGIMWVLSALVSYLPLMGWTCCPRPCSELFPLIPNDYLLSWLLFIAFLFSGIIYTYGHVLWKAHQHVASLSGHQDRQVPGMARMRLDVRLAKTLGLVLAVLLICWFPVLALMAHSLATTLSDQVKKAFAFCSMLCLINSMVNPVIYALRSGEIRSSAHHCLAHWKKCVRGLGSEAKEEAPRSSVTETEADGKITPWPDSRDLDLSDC
T1 sequence (P47936 whole entry): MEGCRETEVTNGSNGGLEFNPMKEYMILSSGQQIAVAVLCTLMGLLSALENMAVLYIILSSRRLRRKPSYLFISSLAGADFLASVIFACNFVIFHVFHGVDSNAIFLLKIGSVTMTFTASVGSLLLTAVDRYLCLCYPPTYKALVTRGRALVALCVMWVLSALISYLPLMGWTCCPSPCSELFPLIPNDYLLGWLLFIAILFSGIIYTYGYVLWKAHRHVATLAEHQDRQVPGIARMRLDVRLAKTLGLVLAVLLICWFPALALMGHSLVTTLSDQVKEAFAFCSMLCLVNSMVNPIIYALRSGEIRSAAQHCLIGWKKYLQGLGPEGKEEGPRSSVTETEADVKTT

SMILES: CCCCOc1c(OC)ccc2cc(C(=O)NC3CCCCC3)c(=O)[nH]c12 [NE40, reference compound]
mCB2 cAMP % eff (efficacy) (mCB2 [1]): −128%
EC50 (mCB2 [1]; read-out: mCB2 cAMP EC50): 11 nM
EC50 ratio hCB1/hCB2 (hCB1 [2]): > 1250
Ki (hCB2 [3]; competition with [^3H]CP55940, read-out: hCB2 Ki): 4 nM
species difference in binding affinity (hCB2 [3]; hCB2 versus mCB2): no species difference
Ki (mCB2 [4]): 2 nM
hCB2 cAMP % eff (efficacy) (hCB2 [5]; CHO-K1 cells expressing hCB2): −178%
EC50 (hCB2 [5]; CHO-K1 cells expressing hCB2, read-out: hCB2 cAMP EC50): 8 nM
functional behaviour in cAMP assay (hCB2 [5]; hCB2): inverse agonist
Ki (hCB1 [6]; competition with [^3H]CP55940, read-out: hCB1 Ki): 1040 nM
Ki ratio hCB1/hCB2 (hCB1 [6]; selectivity): 241

blood % ID 2 min/60 min ratio ([7]; male, NMRI): 5.2
brain % ID 2 min/60 min ratio ([7]; male, NMRI): 9.2
% ID bladder + urine ([7]; male, NMRI, 2 min): 0.2 ± 0.2 % ID
% ID blood ([7]; male, NMRI, 2 min): 5.4 ± 0.4 % ID
% ID bone ([7]; male, NMRI, 2 min): 5.3 ± 1.2 % ID
% ID heart ([7]; male, NMRI, 2 min): 1.2 ± 0.1 % ID
% ID intestines ([7]; male, NMRI, 2 min): 9.4 ± 3.9 % ID
% ID kidneys ([7]; male, NMRI, 2 min): 9.0 ± 1.2 % ID
% ID liver ([7]; male, NMRI, 2 min): 31.4 ± 8.4 % ID
% ID lungs ([7]; male, NMRI, 2 min): 1.2 ± 0.3 % ID
% ID pancreas ([7]; male, NMRI, 2 min): 1.4 ± 0.3 % ID
% ID spleen ([7]; male, NMRI, 2 min): 0.4 ± 0.1 % ID
% ID stomach ([7]; male, NMRI, 2 min): 1.4 ± 0.2 % ID
SUV blood ([7]; male, NMRI, 2 min): 0.8 ± 0.1
SUV bone ([7]; male, NMRI, 2 min): 0.4 ± 0.1
SUV brain ([7]; male, NMRI, 2 min): 1.1 ± 0.1
SUV heart ([7]; male, NMRI, 2 min): 3.4 ± 0.3
SUV kidneys ([7]; male, NMRI, 2 min): 5.4 ± 0.4
SUV liver ([7]; male, NMRI, 2 min): 7.2 ± 2.0
SUV lungs ([7]; male, NMRI, 2 min): 2.8 ± 0.7
SUV pancreas ([7]; male, NMRI, 2 min): 3.0 ± 0.5
SUV spleen ([7]; male, NMRI, 2 min): 5.1 ± 0.6
% ID bladder + urine ([7]; male, NMRI, 10 min): 0.4 ± 0.0 % ID
% ID blood ([7]; male, NMRI, 10 min): 2.2 ± 0.3 % ID
% ID bone ([7]; male, NMRI, 10 min): 3.5 ± 0.2 % ID
% ID brain ([7]; male, NMRI, 10 min): 1.0 ± 0.1 % ID
% ID heart ([7]; male, NMRI, 10 min): 0.3 ± 0.0 % ID
% ID intestines ([7]; male, NMRI, 10 min): 30.8 ± 6.1 % ID
% ID kidneys ([7]; male, NMRI, 10 min): 1.6 ± 0.2 % ID
% ID liver ([7]; male, NMRI, 10 min): 26.1 ± 3.4 % ID
% ID lungs ([7]; male, NMRI, 10 min): 0.5 ± 0.0 % ID
% ID pancreas ([7]; male, NMRI, 10 min): 0.4 ± 0.1 % ID
% ID spleen ([7]; male, NMRI, 10 min): 0.3 ± 0.1 % ID
% ID stomach ([7]; male, NMRI, 10 min): 0.5 ± 0.0 % ID
SUV blood ([7]; male, NMRI, 10 min): 0.3 ± 0.0
SUV bone ([7]; male, NMRI, 10 min): 0.3 ± 0.0
SUV brain ([7]; male, NMRI, 10 min): 0.5 ± 0.0
SUV heart ([7]; male, NMRI, 10 min): 0.6 ± 0.0
SUV kidneys ([7]; male, NMRI, 10 min): 1.1 ± 0.1
SUV liver ([7]; male, NMRI, 10 min): 4.7 ± 0.7
SUV lungs ([7]; male, NMRI, 10 min): 0.7 ± 0.1
SUV pancreas ([7]; male, NMRI, 10 min): 0.8 ± 0.0
SUV spleen ([7]; male, NMRI, 10 min): 0.5 ± 0.0
% ID bladder + urine ([7]; male, NMRI, 30 min): 1.7 ± 0.3 % ID
% ID blood ([7]; male, NMRI, 30 min): 1.2 ± 0.1 % ID
% ID bone ([7]; male, NMRI, 30 min): 1.6 ± 0.5 % ID
% ID brain ([7]; male, NMRI, 30 min): 0.3 ± 0.1 % ID
% ID heart ([7]; male, NMRI, 30 min): 0.1 ± 0.0 % ID
% ID intestines ([7]; male, NMRI, 30 min): 56.2 ± 5.4 % ID
% ID kidneys ([7]; male, NMRI, 30 min): 1.0 ± 0.2 % ID
% ID liver ([7]; male, NMRI, 30 min): 17.3 ± 6.7 % ID
% ID lungs ([7]; male, NMRI, 30 min): 0.2 ± 0.0 % ID
% ID pancreas ([7]; male, NMRI, 30 min): 0.2 ± 0.1 % ID
% ID spleen ([7]; male, NMRI, 30 min): 0.1 ± 0.0 % ID
% ID stomach ([7]; male, NMRI, 30 min): 0.8 ± 1.0 % ID
SUV blood ([7]; male, NMRI, 30 min): 0.2 ± 0.0
SUV bone ([7]; male, NMRI, 30 min): 0.1 ± 0.0
SUV brain ([7]; male, NMRI, 30 min): 0.2 ± 0.0
SUV heart ([7]; male, NMRI, 30 min): 0.4 ± 0.1
SUV kidneys ([7]; male, NMRI, 30 min): 0.6 ± 0.1
SUV liver ([7]; male, NMRI, 30 min): 3.7 ± 1.4
SUV lungs ([7]; male, NMRI, 30 min): 0.4 ± 0.1
SUV pancreas ([7]; male, NMRI, 30 min): 0.4 ± 0.1
SUV spleen ([7]; male, NMRI, 30 min): 0.5 ± 0.3
% ID blood ([7]; male, NMRI, 60 min): 1.0 ± 0.3 % ID
% ID bone ([7]; male, NMRI, 60 min): 2.2 ± 0.3 % ID
% ID brain ([7]; male, NMRI, 60 min): 0.1 ± 0.0 % ID
% ID heart ([7]; male, NMRI, 60 min): 0.1 ± 0.0 % ID
% ID kidneys ([7]; male, NMRI, 60 min): 0.7 ± 0.3 % ID
% ID liver ([7]; male, NMRI, 60 min): 10.2 ± 5.2 % ID
% ID lungs ([7]; male, NMRI, 60 min): 0.1 ± 0.0 % ID
% ID pancreas ([7]; male, NMRI, 60 min): 0.1 ± 0.0 % ID
% ID spleen ([7]; male, NMRI, 60 min): 0.03 ± 0.01 % ID
% ID stomach ([7]; male, NMRI, 60 min): 4.4 ± 5.1 % ID
SUV blood ([7]; male, NMRI, 60 min): 0.1 ± 0.0
SUV bone ([7]; male, NMRI, 60 min): 0.2 ± 0.0
SUV brain ([7]; male, NMRI, 60 min): 0.1 ± 0.0
SUV heart ([7]; male, NMRI, 60 min): 0.3 ± 0.0
SUV kidneys ([7]; male, NMRI, 60 min): 0.5 ± 0.1
SUV lungs ([7]; male, NMRI, 60 min): 0.3 ± 0.1
SUV pancreas ([7]; male, NMRI, 60 min): 0.3 ± 0.1
SUV spleen ([7]; male, NMRI, 60 min): 0.5 ± 0.1
accumulation in the spleen [7]: no accumulation
SMILES: Fc1ccc(-c2noc(CCCNc3cnc4ccc(OCC[18F])cc4c3)n2)c(Cl)c1 [[^18F]MA3]
